Laboratory results published in patent US11357856B2, “Lipids for delivery of active agents” (Acuitas Therapeutics, Inc., priority 2017, dated 2022).

Columns and labels:
[1] = system: luciferase expression in the liver (FLuc mRNA); experiment: Luciferase mRNA in vivo evaluation using lipid nanoparticle compositions (liver luciferase expression); set-up: species or system mice; conditions: LNP 50/10/38.5/1.5 (PEG-DMA) or 47.5/10/40.8/1.7, tail vein injection, liver 4 hours after administration; for Liver Luc @ 0.3 mg/kg (ng luc/g liver): 0.3 mg mRNA/kg; for Liver Luc @ 1.0 mg/kg (ng luc/g liver): 1.0 mg mRNA/kg; for Liver Luc @ 0.5 mg/kg (ng luc/g liver): 0.5 mg mRNA/kg
Procedure: Lipid nanoparticles are prepared and tested according to the general procedures described in PCT Pub. Nos. WO 2015/199952 and WO 2017/004143, the full disclosures of which are incorporated herein by reference. Briefly, cationic lipid, DSPC, cholesterol and PEG-lipid are solubilized in ethanol at a molar ratio of about 50:10:38.5:1.5 or about 47.5:10:40.8:1.7. Lipid nanoparticles (LNP) are prepared at a total lipid to mRNA weight ratio of approximately 10:1 to 30:1. The mRNA is diluted to 0.2 mg/mL in 10 to 50 mM citrate or acetate buffer, pH 4. Syringe pumps are used to mix the ethanolic lipid solution with the mRNA aqueous solution at a ratio of about 1:5 to 1:3 (vol/vol) with total flow rates above 15 mL/min. The ethanol is then removed and the external buffer replaced with PBS by dialysis. Finally, the lipid nanoparticles are filtered through a 0.2 μm pore sterile filter. Lipid nanoparticle particle size is approximately 55-95 nm diameter, and in some instances approximately 70-90 nm diameter as determined by quasi-elastic light scattering using a Malvern Zetasizer Nano ZS (Malvern, UK).
Studies are performed in 6-8 week old female C57BL/6 mice (Charles River) or 8-10 week old CD-1 (Harlan) mice (Charles River) according to guidelines established by an institutional animal care committee (ACC) and the Canadian Council on Animal Care (CCAC). Varying doses of mRNA-lipid nanoparticle are systemically administered by tail vein injection and animals euthanized at a specific time point (e.g., 4 hours) post-administration. Liver and spleen are collected in pre-weighed tubes, weights determined, immediately snap frozen in liquid nitrogen and stored at −80° C. until processing for analysis.
For liver, approximately 50 mg is dissected for analyses in a 2 mL FastPrep tubes (MP Biomedicals, Solon Ohio). ¼″ ceramic sphere (MP Biomedicals) is added to each tube and 500 μL of Glo Lysis Buffer—GLB (Promega, Madison Wis.) equilibrated to room temperature is added to liver tissue. Liver tissues are homogenized with the FastPrep24 instrument (MP Biomedicals) at 2×6.0 m/s for 15 seconds. Homogenate is incubated at room temperature for 5 minutes prior to a 1:4 dilution in GLB and assessed using SteadyGlo Luciferase assay system (Promega). Specifically, 50 μL of diluted tissue homogenate is reacted with 50 μL of SteadyGlo substrate, shaken for 10 seconds followed by 5 minute incubation and then quantitated using a CentroXS^3 LB 960 luminometer (Berthold Technologies, Germany). The amount of protein assayed is determined by using the BCA protein assay kit (Pierce, Rockford Ill.). Relative luminescence units (RLU) are then normalized to total ug protein assayed. To convert RLU to ng luciferase a standard curve is generated with QuantiLum Recombinant Luciferase (Promega).
The FLuc mRNA (L-6107 or L-7202) from Trilink Biotechnologies will express a luciferase protein, originally isolated from the firefly, photinus pyralis. FLuc is commonly used in mammalian cell culture to measure both gene expression and cell viability. It emits bioluminescence in the presence of the substrate, luciferin. This capped and polyadenylated mRNA is fully substituted with respect to uridine and/or cytidine nucleosides.
The cationic lipids shown in Table 2 have previously been tested with nucleic acids. For comparative purposes, these lipids were also used to formulate lipid nanoparticles containing the FLuc mRNA (L-6107) using an in line mixing method, as described in Example 1 and in PCT/US10/22614, which is hereby incorporated by reference in its entirety. Lipid nanoparticles were formulated using the following molar ratio: 50% Cationic lipid/10% distearoylphosphatidylcholine (DSPC)/38.5% Cholesterol/1.5% PEG lipid (“PEG-DMG”, i.e., 1-(monomethoxy-polyethyleneglycol)-2,3-dimyristoylglycerol, with an average PEG molecular weight of 2000). In alternate embodiments, cationic lipid, DSPC, cholesterol and PEG-lipid are formulated at a molar ratio of approximately 47.5:10:40.8:1.7. […]

[2] = Determination of pKa of formulated lipids (TNS fluorescence assay in lipid nanoparticles); type: physicochemical; conditions: cationic lipid formulated in lipid nanoparticles (cationic lipid/DSPC/cholesterol/PEG-lipid 50/10/38.5/1.5 mol %); pH of half-maximal TNS fluorescence
Procedure: As described elsewhere, the pKa of formulated cationic lipids is correlated with the effectiveness of LNPs for delivery of nucleic acids (see Jayaraman et al, Angewandte Chemie, International Edition (2012), 51(34), 8529-8533; Semple et al, Nature Biotechnology 28, 172-176 (2010)). The preferred range of pKa is ˜5 to ˜7. […] Lipid nanoparticles comprising cationic lipid/DSPC/cholesterol/PEG-lipid (50/10/38.5/1.5 mol %) in PBS at a concentration of 0.4 mM total lipid are prepared using the in-line process as described in Example 1. TNS is prepared as a 100 μM stock solution in distilled water. Vesicles are diluted to 24 μM lipid in 2 mL of buffered solutions containing, 10 mM HEPES, 10 mM MES, 10 mM ammonium acetate, 130 mM NaCl, where the pH ranged from 2.5 to 11. An aliquot of the TNS solution is added to give a final concentration of 1 μM and following vortex mixing fluorescence intensity is measured at room temperature in a SLM Aminco Series 2 Luminescence Spectrophotometer using excitation and emission wavelengths of 321 nm and 445 nm. A sigmoidal best fit analysis is applied to the fluorescence data and the pKa was measured as the pH giving rise to half-maximal fluorescence intensity.

| pKa [2] | Compound | Liver Luc @ 0.3 mg/kg (ng luc/g liver) [1] | Liver Luc @ 1.0 mg/kg (ng luc/g liver) [1] | Liver Luc @ 0.5 mg/kg (ng luc/g liver) [1] |
| --- | --- | --- | --- | --- |
| 5.87 | CCCCCCCCC(CCCCCC)CN(CCCCCN(CCO)CCO)CC(CCCCCC)CCCCCCCC (stereo not drawn) [Compound 16] | – | – | 52 ± 26 ng luc/g liver |
| 6.49 | CCCCCCCCC(CCCCCC)CN(CCCNC)CC(CCCCCC)CCCCCCCC (stereo not drawn) [Compound 17] | – | – | 12 ± 5 ng luc/g liver |

More lines, now with the values behind:

| Compound | pKa [2] | Liver Luc @ 0.3 mg/kg (ng luc/g liver) [1] | Liver Luc @ 1.0 mg/kg (ng luc/g liver) [1] | Liver Luc @ 0.5 mg/kg (ng luc/g liver) [1] |
| --- | --- | --- | --- | --- |
| CCCCCCCCC(CCCCCC)CN(CCCCN(C)C)CC(CCCCCC)CCCCCCCC (stereo not drawn) [Compound 4] | 5.55 | 87 ± 11 ng luc/g liver | 233 ± 121 ng luc/g liver | – |
| CCCCCCCCC(CCCCCC)CN(CCCCCN(C)C)CC(CCCCCC)CCCCCCCC (stereo not drawn) [Compound 5] | 5.77 | 2840 ± 757 ng luc/g liver | 13739 ± 7631 ng luc/g liver | – |
| CCCCCCCCC(CCCCCC)CN(CCCCCCN(C)C)CC(CCCCCC)CCCCCCCC (stereo not drawn) [Compound 15] | 5.91 | – | – | 2417 ± 833 ng luc/g liver |
